ChEMBL document CHEMBL1143533, “A short, stereoselective, and common approach for the synthesis of 4,5-disubstituted delta-lactones simplactone B and its C-5 analogue” (Bioorg Med Chem Lett, 2005)

Assay: Inhibitory concentration against human breast cancer cell line (HBL-100) by MTT method
Format: functional, cell-based
Conditions: Cancer cell lines

CCCCCCCCCCCCCC[C@@H]1COC(=O)C[C@H]1O
IC50: 176 nM
